Assay results taken from BigSolDB 2.1.

CCOC(=O)c1c(CSc2ccccc2)n(C)c2cc(Br)c(O)c(CN(C)C)c12.Cl.O
solubility (mole fraction)
Details	293.15 K	298.15 K	303.15 K	308.15 K	313.15 K	318.15 K	323.15 K	328.15 K	333.15 K
in DMF	0.0228	0.0244	0.0276	0.0317	0.0351	0.0396	0.0457	0.0513	0.0596
in NMP	0.0325	0.0352	0.0375	0.0417	0.0462	0.0503	0.0554	0.0635	0.0722
in THF	0.000382	0.000492	0.000678	0.000947	0.00125	0.00163	0.00211	0.00265	–
in acetone	0.000193	0.000252	0.000364	0.000524	0.000696	0.000937	0.00128	–	–
in ethanol	0.00973	0.0116	0.0132	0.0154	0.018	0.0234	0.0294	0.0366	0.0436
in ethyl acetate	7.86e-05	0.000101	0.000125	0.000158	0.0002	0.000245	0.000295	0.000354	0.000426
in isopropanol	0.00114	0.00161	0.0021	0.0029	0.00356	0.00476	0.00602	0.00749	0.00955
in methanol	0.0405	0.0442	0.0494	0.0541	0.0622	0.0715	0.0786	0.0903	–
in n-butanol	0.00344	0.00441	0.00545	0.00709	0.00865	0.0105	0.0127	0.0159	0.0203
in n-propanol	0.00522	0.00628	0.00728	0.00878	0.0112	0.0141	0.0171	0.0214	0.027
in water	5.82e-05	7.34e-05	8.66e-05	0.000108	0.000126	0.000156	0.000204	0.000251	0.000309
